According to EP1388586A2, “Identification of broadly reactive DR restricted epitopes” (priority 1998, dated 1999):
Read-outs that look alike come from different tables or passages of the source. Square brackets hold non-standard residues; d marks the D form. Ends that are not written are not given here. Peptide text beside a SMILES is read from it.

Columns and labels:
DRB1*0101 (DR1) = target: T1, DRB1*0101 (DR1) (Homo sapiens, UniProt P01903+P01911, A100R/D57E/F55L/F60I/F76Y/I96L/L162R/M171V/P40L/Q125E/R42F/V115G/Y59C); test: Class II peptide-binding assay, DR1;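 note: competition assay: unlabeled test peptides inhibit binding of a radiolabeled probe peptide to purified DR, with half-maximal inhibition taken as an approximate dissociation constant Kd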
T1 construct: used as sources of human HLA class II molecules; endogenous in cells; host or cells: LG2 (EBV-transformed homozygous B cell line)

DRB5*0101 (DR2w2a) = target: T2, DRB5*0101 (DR2w2a) (Homo sapiens, UniProt P01903+Q30154); test: Class II peptide-binding assay, DR2w2a (DR2w2B2);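 note: competitive binding assay: unlabeled peptide inhibiting binding of a radiolabeled probe peptide to purified DR molecules at pH 7.0, IC50 approximating Kd, lower means stronger binding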
T2 construct: used as sources of human HLA class II molecules; endogenous in cells; host or cells: GM3107 (EBV-transformed homozygous B cell line)

DRB1*0401 (DR4w4) = target: T3, DRB1*0401 (DR4w4) (Homo sapiens, UniProt P01903+P01911, A100K/A169T/F76Y/I96L/K127E/L162R/M171V/N62H/P40V/Q125Y/R42H/S133A/S149N/S66Y/V115G/V209L/W38E); test: Class II peptide-binding assay, DR4w4;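 note: unlabeled test peptides compete with a radiolabeled probe peptide for binding to affinity-purified HLA-DR, with DR amount titrated to capture a small fraction of label, IC50 approximating Kd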
T3 construct: used as sources of human HLA class II molecules; endogenous in cells; host or cells: PREISS (EBV-transformed homozygous B cell line)
Method: (§1) Class II peptide-binding assays. […] These assays were chosen as to be representative of the most common DR alleles.
Radiolabeled peptides were iodinated using the chloramine-T method. […] In appropriate stoichiometric conditions, the IC50 of an unlabeled test peptide to the purified DR is a reasonable approximation of the affinity of interaction (Kd). Peptides were tested in two to four completely independent experiments. […] Final detergent concentration in the incubation mixture was 0.05% Nonidet P-40. Assays were performed at pH 7.0 with the exception of DR3, which was performed at pH 4.5, and DRw53, which was performed at pH 5.0.
(§2) All subsequent inhibition and direct binding assays were the performed using these class II concentrations.

DRB10404 (DR4w14) = target: T4, DRB10404 (DR4w14) (Homo sapiens, UniProt P01903+P01911, A100R/A169T/F76Y/I96L/K127E/L162R/M171V/N62H/P40V/Q125Y/R42H/S133A/S149N/S66Y/V209L/W38E); test: Class II peptide-binding assay, DR4w14;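 note: unlabeled peptides compete with a radiolabeled probe for binding to affinity-purified HLA-DR, neutral pH, class II amount titrated to bind a small fraction of label, IC50 approximates Kd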
T4 construct: used as sources of human HLA class II molecules; endogenous in cells; host or cells: BIN40 (EBV-transformed homozygous B cell line)
Method: as §1
In appropriate stoichiometric conditions, the IC50 of an unlabeled test peptide to the purified DR is a reasonable approximation of the affinity of interaction (Kd). Peptides were tested in two to four completely independent experiments. […] Final detergent concentration in the incubation mixture was 0.05% Nonidet P-40. Assays were performed at pH 7.0 with the exception of DR3, which was performed at pH 4.5, and DRw53, which was performed at pH 5.0.
as §2

DRB1*1101 (DR5w11) = target: T5, DRB1*1101 (DR5w11) (Homo sapiens, UniProt P01903+P01911, A100R/A169T/A87E/I96F/K41T/L162R/M171V/P40S/Q125H/Q178H/Q39Y/Q99D/R42S/S66Y/T262R/V115G/W38E); test: Class II peptide-binding assay, DR5w11;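 note: competition by unlabeled test peptide against iodinated probe peptide binding to affinity-purified HLA-DR, class II amount titrated beforehand, half-maximal inhibitory concentration read as approximate Kd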
T5 construct: used as sources of human HLA class II molecules; endogenous in cells; host or cells: SWEIG (EBV-transformed homozygous B cell line)
T5 sequence (P01903 26-254, other chains not shown): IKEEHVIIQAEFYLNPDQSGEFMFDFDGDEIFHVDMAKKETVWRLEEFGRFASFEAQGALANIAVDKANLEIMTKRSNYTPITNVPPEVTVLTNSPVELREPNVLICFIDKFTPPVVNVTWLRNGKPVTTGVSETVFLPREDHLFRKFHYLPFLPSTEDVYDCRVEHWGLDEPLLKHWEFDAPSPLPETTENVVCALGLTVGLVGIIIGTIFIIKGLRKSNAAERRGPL

DRB1*0701 (DR7) = DRB1*0701 (DR7) (Homo sapiens, UniProt P01903+P01911, A100R/A102G/A103Q/D57E/D86V/E43K/F76Y/K127E/L162R/M171V/P40G/Q125H/Q99D/R33Q/R42Y/R54Q/S133A/S66F/T210M/V115G/Y107V/Y59L/Y89S); test: Class II peptide-binding assay, DR7;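 note: unlabeled peptides compete with an iodinated probe peptide for binding to affinity-purified HLA-DR at neutral pH, DR amount titered to bind a small tracer fraction, IC50 approximating Kd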
[1] = read-out: DR1 nM (In IC50 Format), purified HLA DR1
[2] = read-out: DR2w2B2 nM (In IC50 Format), purified HLA DR2w2β2
[3] = read-out: DR4w4 nM (In IC50 Format), purified HLA DR4w4
[4] = read-out: DR4w14 nM (In IC50 Format), purified HLA DR4w14
[5] = read-out: DR5w11 nM (In IC50 Format), purified HLA DR5w11
[6] = read-out: DR7 nM (In IC50 Format), purified HLA DR7
[7] = read-out: DR1 nM, Table VIII, In IC50 Format
[8] = read-out: DR2w2B2 nM, Table VIII, In IC50 Format
[9] = read-out: DR4w4 nM, Table VIII, In IC50 Format
[10] = read-out: DR4w14 nM, Table VIII, In IC50 Format
[11] = read-out: DR5w11 nM, Table VIII, In IC50 Format

Molecule: YARFASQTTLKAKT-NH2 [Peptide 782.02]
- IC50 (DRB1*0101 (DR1); [1]): 3.6 nM
- IC50 (DRB5*0101 (DR2w2a); [2]): 191 nM
- IC50 (DRB1*0401 (DR4w4); [3]): 2.5 nM
- IC50 (DRB10404 (DR4w14); [4]): 14.7 nM
- IC50 (DRB1*1101 (DR5w11); [5]): 25.7 nM
- IC50 (DRB1*0701 (DR7); [6]): 6250 nM

Molecule: YARFQSETTEKAKT-NH2 [Peptide 717.07]
- IC50 (DRB5*0101 (DR2w2a); [2]): 5000 nM
- IC50 (DRB1*0401 (DR4w4); [3]): 64.3 nM
- IC50 (DRB10404 (DR4w14); [4]): 806 nM

Molecule: CC[C@H](C)[C@H](NC(=O)[C@@H](NC(=O)[C@H](CC(C)C)NC(=O)[C@@H](NC(=O)[C@@H]1CCCN1C(=O)[C@H](CCCNC(=N)N)NC(=O)[C@@H](N)CCCNC(=N)N)[C@@H](C)CC)[C@@H](C)O)C(=O)N[C@H](C(=O)N[C@H](C(=O)N[C@@H](CC(C)C)C(=O)N[C@@H](CCC(=O)O)C(=O)N[C@@H](CC(=O)O)C(=O)N[C@@H](CO)C(=O)N[C@@H](CO)C(=O)NCC(=O)O)[C@@H](C)O)[C@@H](C)CC [Peptide 39.0310]
- IC50 (DRB1*0701 (DR7); read-out: In IC50 Format DR7 nM, Table VIII, page 2): 10900 nM

Molecule: YARFQRQTTLKIAT [Peptide 716.01]
- IC50 (DRB1*0101 (DR1); [1]): 2.9 nM
- IC50 (DRB5*0101 (DR2w2a); [2]): 95.2 nM
- IC50 (DRB1*0401 (DR4w4); [3]): 16.7 nM
- IC50 (DRB10404 (DR4w14); [4]): 111 nM
- IC50 (DRB1*0701 (DR7); [6]): 42.7 nM

Molecule: YARYQSQTTLKAKT-NH2 [Peptide 717.42]
- IC50 (DRB1*0101 (DR1); [1]): 7.8 nM
- IC50 (DRB5*0101 (DR2w2a); [2]): 364 nM
- IC50 (DRB1*0401 (DR4w4); [3]): 3.1 nM
- IC50 (DRB10404 (DR4w14); [4]): 66.7 nM
- IC50 (DRB1*1101 (DR5w11); [5]): 14.3 nM

Molecule: CC(C)C[C@H](NC(=O)[C@@H](NC(=O)[C@@H](NC(=O)[C@H](CCC(N)=O)NC(=O)[C@H](CCCNC(=N)N)NC(=O)[C@H](CCC(N)=O)NC(=O)[C@@H](N)Cc1ccccc1)[C@@H](C)O)[C@@H](C)O)C(=O)N[C@@H](CCCCN)C(=O)N[C@@H](C)C(=O)N[C@@H](C)C(=O)N[C@H](C)C(N)=O [Peptide 781.06] (H-FQRQTTLKAA[dA]-NH2)
- IC50 (DRB1*0101 (DR1); [1]): 19.2 nM
- IC50 (DRB1*0401 (DR4w4); [3]): 2.4 nM
- IC50 (DRB10404 (DR4w14); [4]): 13.9 nM

Molecule: CC(C)C[C@H](NC(=O)[C@@H](NC(=O)[C@@H](NC(=O)[C@H](CCC(N)=O)NC(=O)[C@H](CO)NC(=O)[C@H](CCC(N)=O)NC(=O)[C@H](Cc1ccccc1)NC(=O)[C@H](CCCCN)NC(=O)[C@H](C)NC(=O)[C@H](N)Cc1ccc(O)cc1)[C@@H](C)O)[C@@H](C)O)C(=O)N[C@@H](CCCCN)C(=O)N[C@@H](C)C(=O)N[C@@H](CCCCN)C(=O)N[C@@H](C(N)=O)[C@H](C)O [Peptide 858.02] (H-[dY]AKFQSQTTLKAK[dT]-NH2)
- IC50 (DRB1*0101 (DR1); [7]): 9 nM
- IC50 (DRB5*0101 (DR2w2a); [8]): 32.4 nM
- IC50 (DRB1*0401 (DR4w4); [9]): 6.4 nM
- IC50 (DRB10404 (DR4w14); [10]): 17.9 nM
- IC50 (DRB1*1101 (DR5w11); [11]): 16.3 nM

Molecule: CC(C)C[C@H](NC(=O)[C@@H](NC(=O)[C@@H](NC(=O)[C@H](CCC(N)=O)NC(=O)[C@H](CO)NC(=O)[C@H](CCC(N)=O)NC(=O)[C@H](Cc1ccccc1)NC(=O)[C@H](CCCNC(=N)N)NC(=O)[C@H](C)NC(=O)[C@H](N)Cc1ccc(O)cc1)[C@@H](C)O)[C@@H](C)O)C(=O)N[C@@H](CCCCN)C(=O)N[C@@H](C)C(=O)N[C@@H](CCCCN)C(=O)N[C@@H](C(N)=O)[C@H](C)O [Peptide 858.06] (H-[dY]ARFQSQTTLKAK[dT]-NH2)
- IC50 (DRB1*0101 (DR1); [7]): 4.5 nM
- IC50 (DRB5*0101 (DR2w2a); [8]): 64 nM
- IC50 (DRB1*0401 (DR4w4); [9]): 5 nM
- IC50 (DRB1*1101 (DR5w11); [11]): 18.2 nM

Molecule: INSWVESQTNGIIR [Peptide 608.02]
- IC50 (DRB1*0101 (DR1); read-out: In IC50 Format DR1, Table VIII): 556 nM
- IC50 (DRB5*0101 (DR2w2a); read-out: In IC50 Format DR2w2β2, Table VIII): > 10000 nM
- IC50 (DRB1*0401 (DR4w4); read-out: In IC50 Format DR4w4, Table VIII): 375 nM
- IC50 (DRB10404 (DR4w14); read-out: In IC50 Format DR4w14, Table VIII): 16700 nM
- IC50 (DRB1*0701 (DR7); read-out: In IC50 Format DR7, Table VIII): 14.7 nM

Molecule: YARFQSQTTLEAKT-NH2 [Peptide 717.22]
- IC50 (DRB1*0101 (DR1); [1]): 7.9 nM
- IC50 (DRB5*0101 (DR2w2a); [2]): 870 nM
- IC50 (DRB1*0401 (DR4w4); [3]): 11.8 nM
- IC50 (DRB1*1101 (DR5w11); [5]): 29.4 nM
- IC50 (DRB1*0701 (DR7); [6]): 2780 nM

Molecule: CC(C)C[C@H](NC(=O)[C@@H](NC(=O)[C@@H](NC(=O)[C@H](CCC(N)=O)NC(=O)[C@H](CO)NC(=O)[C@H](CCC(N)=O)NC(=O)[C@H](Cc1ccccc1)NC(=O)[C@H](C)NC(=O)[C@H](C)NC(=O)[C@H](N)Cc1ccc(O)cc1)[C@@H](C)O)[C@@H](C)O)C(=O)N[C@@H](CCCCN)C(=O)N[C@@H](C)C(=O)N[C@@H](CCCCN)C(=O)N[C@@H](C(N)=O)[C@H](C)O [Peptide 858.04] (H-[dY]AAFQSQTTLKAK[dT]-NH2)
- IC50 (DRB5*0101 (DR2w2a); [8]): 141 nM
- IC50 (DRB1*0401 (DR4w4); [9]): 4.5 nM
- IC50 (DRB10404 (DR4w14); [10]): 15.6 nM
- IC50 (DRB1*1101 (DR5w11); [11]): 19.6 nM
- IC50 (DRB1*0701 (DR7); read-out: DR7 nM, Table VIII, In IC50 Format): 25000 nM
